From article PMC10949195, “Exponential Combination of a and e/g Intracellular Peptide Libraries Identifies a Selective ATF3 Inhibitor” (ACS Chemical Biology, 2024)

How the values were obtained:
[1] = molecular target: T1, ATF3 (Homo sapiens, UniProt P18847); test: CD spectra of ATF3-ATF3W_aeg complex; type: binding; conditions: 1:1 stoichiometry with ATF3, 150 μM total peptide, pH 7.0
T1 construct: We focus on the selective targeting of the ATF3 leucine zipper dimerization domain using intracellular peptide library screening; made in house; host or cells: chemical solid-phase peptide synthesis (no expression host)
T1 sequence (P18847 110-143): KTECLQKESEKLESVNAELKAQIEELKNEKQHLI
Description: ATF3, ATF3W_a, and ATF3W_eg and combined hit sequence ATF3W_aeg were synthesized using solid phase peptide synthesis, purified by RP-HPLC, and verified for correct mass using ESI-MS (Figure S3), after which circular dichroism (CD) was used to characterize both ATF3 and antagonist peptides for helicity and interactions as homodimers, as well as heterodimers with the ATF3 target. Global secondary analysis of both homodimeric and heterodimeric systems was carried out at a total peptide concentration of 150 μM to keep equimolar concentrations of each component helix. The 222/208 ratio was used to provide evidence on whether the helices were likely to be monomeric or adopt quaternary structure.[13] […] Furthermore, incubation of ATF3 with ATF3W_aeg elicited a significant conformational change in the sample relative to the average of the component peptides (Figure 6d black line vs red hash), providing compelling evidence for an interaction.[14] In addition, the component PCA hits were examined using CD.
Figure 6 CD spectra data indicates a ATF3-ATF3W_aeg interaction. […] Spectra were next measured at 20 and 5 °C and again post-thermal denaturation (PM 20 °C to establish reversible that unfolding is fully reversible) at a total peptide concentration of 150 μM and presented as mean residue ellipticity (MRE). […]

[2] = CD thermal denaturation of peptide in isolation; type: physicochemical; conditions: CD at 222 nm; 150 μM total peptide; 10 mM potassium phosphate, 100 mM potassium fluoride, pH 7
Text: Following the observed significant increase in global secondary structure content for the ATF3-ATF3W_aeg complex relative to component peptides (Figure 6), we next analyzed the stability of the complex by undertaking thermal denaturation experiments (Figure 7). […] Moreover, consistent with spectral data, the clear increase from the average profile of the component peptides relative to that of the measured is most pronounced in the combined construct (Figure 7, red hash vs black). This provides robust additional evidence for a preferential interaction between ATF3 and ATF3W_aeg that is improved over either the core a or electrostatic e/g constructs.
Shown are thermal stabilities of peptide pairs measured via temperature dependence of the CD signal at 222 nm. The thermal denaturation profiles for (a) ATF3-ATF3W_a, (b) ATF3-ATF3W_eg, and (c) ATF3-ATF3W_aeg show a substantial increase in the transition midpoint (Tm = 59 °C) relative to component peptides (black vs red hash). Experiments were performed in 10 mM potassium phosphate and 100 mM potassium fluoride (pH 7.0). All spectra were recorded at 1 °C increments at a total peptide concentration of 150 μM and fitted to a two-state denaturation model. […]

[3] = Serum stability; type: in vitro ADME; conditions: human serum (Merck), 75 uL of 600 uM stock in 1425 uL serum, 37 °C, 3-day time course; LC-MS; averages of three experimental repeats
Description: TableS1: Shown are peptide permeability assay on ATF3W-aeg. […]
peptide holding on the membrane.
Peptide permeability assay: To evaluate the peptide permeability, the BD™ pre-coated PAMPA plate system was employed. The 300uL of 200uM peptide in PBS buffer were added in the well of the receiver plate, and slowly placed the filter plate with the 200uL PBS buffer per well on the receiver plate. The peptide concentrations in both plates were determined by UV spectroscopy after the assembly plate system were incubated at room temperature for 5 hours, and the peptide permeability and mass retention were calculated by using the PAMPA plate system formula which recommended in the manufacture manual.
Permeability (in unit of cm/s):
Mass retention: 1 - [CD(t)*VD + CA(t)*VA ]/( C0 * VD)
C0 = initial compound concentration in donor well (mM)
CD(t) = compound concentration in donor well at time t (mM)
CA(t) = compound concentration in acceptor well at time t (mM)
VD = donor well volume = 0.3 mL
VA = acceptor well volume = 0.2 mL […]
Serum stability: The quantity of peptide detected by LC-MS is plotted relative to the starting point […]
Fig S5: Shown are serum stability of ATF3W-aeg. The quantity of peptide detected by LC-MS is plotted […]
The supernatant was analysed by LC-MS, and the peptide was quantified as the sum of the peaks with the two largest intensities1.

Ac-ELAALEQKAYALKQENAALEKEVAALEQKIAALK-NH2 (N-terminus and C-terminus assumed) [ATF3W_aeg]
222/208 ratio of ATF3-ATF3W_aeg complex [1]: 0.94 | fractional helicity (fH) of ATF3-ATF3W_aeg complex [1]: ~68% | self-association in isolation (thermal denaturation profile) [2]: inability of ATF3W_aeg to form a stable homodimer in isolation | serum stability, peptide quantity relative to starting point [3]: completely degraded
